Laboratory results published in patent US20230113037A1 (Bayer Aktiengesellschaft, priority 2019, published 2023).
Read-outs that look alike come from different tables or passages of the source.

Key:
AHR [1] = target: T1, AHR (Homo sapiens, UniProt P35869); assay: In vitro assay 1: antagonism in human cell line (AHR transactivation, firefly luciferase reporter, kynurenic acid prestimulated); type: cell-based; conditions: AHR Antagonism Human IC50 [M]
T1 construct: U87 MG glioblastoma cells (ATCC #HTB-14) endogenously expressing AHR; endogenous in cells; host or cells: U87 MG glioblastoma cells (ATCC #HTB-14)
T1 sequence (P35869 11-848): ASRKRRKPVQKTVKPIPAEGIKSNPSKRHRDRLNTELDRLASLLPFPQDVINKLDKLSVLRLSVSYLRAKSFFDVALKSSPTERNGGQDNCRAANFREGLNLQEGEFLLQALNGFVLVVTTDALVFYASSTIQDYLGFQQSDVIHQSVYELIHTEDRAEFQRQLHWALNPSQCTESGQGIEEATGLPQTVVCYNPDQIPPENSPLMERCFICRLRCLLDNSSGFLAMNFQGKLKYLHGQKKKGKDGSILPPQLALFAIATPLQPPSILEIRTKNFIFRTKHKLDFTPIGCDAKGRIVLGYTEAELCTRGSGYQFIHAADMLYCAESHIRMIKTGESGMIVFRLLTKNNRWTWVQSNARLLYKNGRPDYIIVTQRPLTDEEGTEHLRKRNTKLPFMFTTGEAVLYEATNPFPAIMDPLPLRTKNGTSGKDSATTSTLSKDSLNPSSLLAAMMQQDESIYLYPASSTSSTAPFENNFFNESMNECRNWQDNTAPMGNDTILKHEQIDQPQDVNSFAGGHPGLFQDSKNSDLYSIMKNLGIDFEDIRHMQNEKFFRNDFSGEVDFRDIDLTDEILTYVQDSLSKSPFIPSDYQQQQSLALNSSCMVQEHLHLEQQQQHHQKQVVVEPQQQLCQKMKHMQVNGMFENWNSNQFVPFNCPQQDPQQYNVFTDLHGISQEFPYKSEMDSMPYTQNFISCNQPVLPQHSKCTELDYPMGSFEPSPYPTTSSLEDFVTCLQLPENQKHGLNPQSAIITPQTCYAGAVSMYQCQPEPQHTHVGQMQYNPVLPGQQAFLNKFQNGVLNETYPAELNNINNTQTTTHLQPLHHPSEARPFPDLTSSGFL
Method in brief: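 U87 MG + DRE-firefly/constitutive-Renilla stable reporters; kynurenic acid prestim; dual-luc read; Renilla = tox; normalized vs pos/neg controls (pos: 150 μM KYNA + 5 μM staurosporine).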

AHR [2] = target: T2, AHR (Mus musculus, UniProt P30561); assay: In vitro assay 3: antagonism in mouse cell line (AHR transactivation, firefly luciferase reporter, kynurenic acid prestimulated); type: cell-based
T2 sequence (P30561 1-848 P471L/N533S/M589L): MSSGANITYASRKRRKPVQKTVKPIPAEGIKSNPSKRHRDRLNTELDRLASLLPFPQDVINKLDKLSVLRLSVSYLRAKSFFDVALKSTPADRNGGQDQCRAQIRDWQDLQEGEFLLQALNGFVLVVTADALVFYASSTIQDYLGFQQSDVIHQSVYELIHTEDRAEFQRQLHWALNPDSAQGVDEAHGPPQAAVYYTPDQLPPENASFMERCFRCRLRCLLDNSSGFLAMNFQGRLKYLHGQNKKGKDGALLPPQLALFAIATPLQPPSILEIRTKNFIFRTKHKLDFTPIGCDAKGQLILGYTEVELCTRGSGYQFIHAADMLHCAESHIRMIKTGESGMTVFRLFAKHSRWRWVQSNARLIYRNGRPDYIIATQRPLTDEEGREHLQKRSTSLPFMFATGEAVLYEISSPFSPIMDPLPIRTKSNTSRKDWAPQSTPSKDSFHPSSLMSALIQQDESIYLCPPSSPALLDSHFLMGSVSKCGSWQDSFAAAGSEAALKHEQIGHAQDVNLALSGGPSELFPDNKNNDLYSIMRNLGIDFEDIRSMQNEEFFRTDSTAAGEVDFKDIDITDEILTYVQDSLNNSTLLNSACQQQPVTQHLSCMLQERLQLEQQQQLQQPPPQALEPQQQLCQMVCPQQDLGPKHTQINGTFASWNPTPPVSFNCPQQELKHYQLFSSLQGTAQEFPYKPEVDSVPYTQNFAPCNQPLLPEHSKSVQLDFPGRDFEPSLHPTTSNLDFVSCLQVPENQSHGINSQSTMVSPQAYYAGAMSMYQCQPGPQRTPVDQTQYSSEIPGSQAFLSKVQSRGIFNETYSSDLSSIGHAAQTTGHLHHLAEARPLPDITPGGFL
Method in brief: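 Cells were first stimulated with kynurenic acid, then exposed to test compound, after which firefly luciferase from a DRE-containing AHR reporter was read out. Signal was scaled between positive and negative controls. Cells not given kynurenic acid provided the inhibition reference.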

[3] = mouse Hepa 1c1c7 cells, 200 μM kynurenic acid, 20 hours, read-out: AHR Antagonism Mouse IC50

| Compound | IC50 (AHR [1]) [M] | IC50 (AHR [2]; [3]) [nM] | IC50 (AHR [2]; read-out: AHR Antagonism Mouse IC50, mouse Hepa 1c1c7 cells, 200 μM kynurenic acid, 20 hours) [nM] |
| --- | --- | --- | --- |
| Cc1nn(C)cc1-c1nc2c3ccccc3nc(N[C@@H]3CCCCNC3=O)n2n1 [Example 605, (3R)-3-{[2-(1,3-dimethyl-1H-pyrazol-4-yl)[1,2,4]triazolo[1,5-c]quinazolin-5-yl]amino}azepan-2-one] | 1.59e-09 | 1.05 |  |
| Cc1cc(-c2nc3c4ccccc4nc(N[C@@H]4CCCCNC4=O)n3n2)c(C)n1C [Example 606, (3R)-3-{[2-(1,2,5-trimethyl-H-pyrrol-3-yl)[1,2,4]triazolo[1,5-c]quinazolin-5-yl]amino}azepan-2-one] | 9.02e-09 | 3.08 |  |
| CC(C)(C)n1nccc1-c1nc2c3ccccc3nc(N[C@@H]3CCCCNC3=O)n2n1 [Example 608, (3R)-3-{[2-(1-tert-butyl-1H-pyrazol-5-yl)[1,2,4]triazolo[1,5-c]quinazolin-5-yl]amino}azepan-2-one] | 1.12e-07 | 25.5 |  |
| Cc1[nH]ncc1-c1nc2c3ccccc3nc(N[C@@H]3CCCCNC3=O)n2n1 [Example 609, (3R)-3-{[2-(5-methyl-1H-pyrazol-4-yl)[1,2,4]triazolo[1,5-c]quinazolin-5-yl]amino}azepan-2-one] | 1.57e-07 | 324 |  |
| Cn1cncc1-c1nc2c3ccccc3nc(N[C@@H]3CCCCNC3=O)n2n1 [Example 610, (3R)-3-{[2-(1-methyl-1H-imidazol-5-yl)[1,2,4]triazolo[1,5-c]quinazolin-5-yl]amino}azepan-2-one] | 2.44e-07 | 86.5 |  |
| O=C1NCCCC[C@H]1Nc1nc2ccccc2c2nc(-c3ccsc3Cl)nn12 [Example 611, (3R)-3-{[2-(2-chlorothiophen-3-yl)[1,2,4]triazolo[1,5-c]quinazolin-5-yl]amino}azepan-2-one] | 4.36e-09 | 3.16 |  |
| O=C1NCCCC[C@H]1Nc1nc2ccccc2c2nc(-c3ccc(O)cc3)nn12 [Example 614, (3R)-3-{[2-(4-hydroxyphenyl)[1,2,4]triazolo[1,5-c]quinazolin-5-yl]amino}azepan-2-one] | 2.09e-08 | 23.8 |  |
| N#Cc1ccccc1-c1nc2c3ccccc3nc(N[C@@H]3CCCCNC3=O)n2n1 [Example 619, 2-(5-{[(3R)-2-oxoazepan-3-yl]amino}[1,2,4]triazolo[1,5-c]quinazolin-2-yl)benzonitrile] | 1.44e-09 | 2.96 |  |
| Cc1cccc(C)c1-c1nc2c3ccccc3nc(N[C@@H]3CCCCNC3=O)n2n1 [Example 623, (3R)-3-{[2-(2,6-dimethylphenyl)[1,2,4]triazolo[1,5-c]quinazolin-5-yl]amino}azepan-2-one] | 3.37e-07 | 4.65 |  |
| COc1ccc(-c2nc3c4ccccc4nc(N[C@@H]4CCCCNC4=O)n3n2)cc1OC [Example 624, (3R)-3-{[2-(3,4-dimethoxyphenyl)[1,2,4]triazolo[1,5-c]quinazolin-5-yl]amino}azepan-2-one] | 3.49e-09 | 1.24 |  |
| O=C1NCCCC[C@H]1Nc1nc2ccccc2c2nc(-c3ccc(F)c(Cl)c3)nn12 [Example 625, (3R)-3-{[2-(3-chloro-4-fluorophenyl)[1,2,4]triazolo[1,5-c]quinazolin-5-yl]amino}azepan-2-one] | 1.5e-09 |  | > 2000 |
| O=C1NCCCC[C@H]1Nc1nc2ccccc2c2nc(-c3ccc(O)c(F)c3)nn12 [Example 629, (3R)-3-{[2-(3-fluoro-4-hydroxyphenyl)[1,2,4]triazolo[1,5-c]quinazolin-5-yl]amino}azepan-2-one] | 4.88e-08 | 190 |  |
| O=C1NCCCC[C@H]1Nc1nc2ccccc2c2nc(-c3ccc(O)cc3F)nn12 [Example 634, (3R)-3-{[2-(2-fluoro-4-hydroxyphenyl)[1,2,4]triazolo[1,5-c]quinazolin-5-yl]amino}azepan-2-one] | 9.09e-08 | 206 |  |
| Cc1cncc(-c2nc3c4ccccc4nc(N[C@@H]4CCCCNC4=O)n3n2)c1 [Example 636, (3R)-3-{[2-(5-methylpyridin-3-yl)[1,2,4]triazolo[1,5-c]quinazolin-5-yl]amino}azepan-2-one] | 2.32e-08 | 5.98 |  |

These reach a lower IC50 (AHR [1]). Values come first.

| IC50 (AHR [1]) [M] | IC50 (AHR [2]; [3]) [nM] | Compound | IC50 (AHR [2]; read-out: AHR Antagonism Mouse IC50, mouse Hepa 1c1c7 cells, 200 μM kynurenic acid, 20 hours) [nM] |
| --- | --- | --- | --- |
| 1.32e-09 | 1.23 | O=C1NCCCC[C@H]1Nc1nc2ccccc2c2nc(-c3ccc(OC4CC4)cc3)nn12 [Example 612, (3R)-3-({2-[4-(cyclopropyloxy)phenyl][1,2,4]triazolo[1,5-c]quinazolin-5-yl}amino)azepan-2-one] |  |
| 1.29e-09 | 0.784 | CC(C)Oc1ccc(-c2nc3c4ccccc4nc(N[C@@H]4CCCCNC4=O)n3n2)cc1F [Example 632, (3R)-3-[(2-{3-fluoro-4-[(propan-2-yl)oxy]phenyl}[1,2,4]triazolo[1,5-c]quinazolin-5-yl)amino]azepan-2-one] |  |
| 1.17e-09 | 0.799 | CC(C)Oc1ccc(-c2nc3c4ccccc4nc(N[C@@H]4CCCCNC4=O)n3n2)cc1 [Example 613, (3R)-3-[(2-{4-[(propan-2-yl)oxy]phenyl}[1,2,4]triazolo[1,5-c]quinazolin-5-yl)amino]azepan-2-one] |  |
| 1.14e-09 | 0.64 | O=C1NCCCC[C@H]1Nc1nc2ccccc2c2nc(-c3ccc(F)c(F)c3)nn12 [Example 633, (3R)-3-{[2-(3,4-difluorophenyl)[1,2,4]triazolo[1,5-c]quinazolin-5-yl]amino}azepan-2-one] |  |
| 1.02e-09 | 0.964 | Nc1cccc(-c2nc3c4ccccc4nc(N[C@@H]4CCCCNC4=O)n3n2)c1 [Example 621, (3R)-3-{[2-(3-aminophenyl)[1,2,4]triazolo[1,5-c]quinazolin-5-yl]amino}azepan-2-one] |  |
| 1e-09 | 3.53 | COc1ccc(-c2nc3c4ccccc4nc(N[C@@H]4CCCCNC4=O)n3n2)c(F)c1 [Example 631, (3R)-3-{[2-(2-fluoro-4-methoxyphenyl)[1,2,4]triazolo[1,5-c]quinazolin-5-yl]amino}azepan-2-one] |  |
| 9.49e-10 | 1.1 | COc1ccc(-c2nc3c4ccccc4nc(N[C@@H]4CCCCNC4=O)n3n2)cc1F [Example 635, (3R)-3-{[2-(3-fluoro-4-methoxyphenyl)[1,2,4]triazolo[1,5-c]quinazolin-5-yl]amino}azepan-2-one] |  |
| 7.6e-10 | 1.07 | CCOc1ccc(-c2nc3c4ccccc4nc(N[C@@H]4CCCCNC4=O)n3n2)cc1 [Example 616, (3R)-3-{[2-(4-ethoxyphenyl)[1,2,4]triazolo[1,5-c]quinazolin-5-yl]amino}azepan-2-one] |  |
| 6.68e-10 | 0.326 | COc1ccc(-c2nc3c4ccccc4nc(N[C@@H]4CCCCNC4=O)n3n2)cc1C [Example 627, (3R)-3-{[2-(4-methoxy-3-methylphenyl)[1,2,4]triazolo[1,5-c]quinazolin-5-yl]amino}azepan-2-one] |  |
| 4.83e-10 | 0.861 | CSc1ccc(-c2nc3c4ccccc4nc(N[C@@H]4CCCCNC4=O)n3n2)c(F)c1 [Example 630, (3R)-3-({2-[2-fluoro-4-(methylsulfanyl)phenyl][1,2,4]triazolo[1,5-c]quinazolin-5-yl}amino)azepan-2-one] |  |
